Common to all, as to assay type: cell-based
One experiment has as its target T1, NCl-H2073 (EGFR_WT) (Homo sapiens, UniProt P00533).
T1 construct: endogenous in cells; host or cells: A431, NCI-H2073, NCI-H292
Kind of experiment: EGFR degradation assay (western blot), NCl-H2073 cells. To be noted: Table 5; NCI-H2073 cells (EGFR_WT), 24 h. Here is the method: (§1) A431 (EGFR_WT), NCl-H2073 (EGFR_WT), NCl-H292 (EGFR_WT), BaF3_YVAM (Her2_A775insYVAM), BaF3_SVD (EGFR_D770insSVD), BaF3_ASV (EGFR_A776inASV), or BaF3_DTC (EGFR_Exon19del/T790M/C797S) cells were seeded in a 24-well plate at a density of 4×10^5 cells per well for EGFR WT cells and 8× cells per well for EGFR or Her2 mutant cells, and the plates were incubated overnight. The cells were treated with the desired compounds for 24 h. The culture medium was removed, and 100 μL of RIPA buffer (Beyotime, P0013B) containing 1% Protease Inhibitor Cocktail (Bimake, B14001), 1% Phosphatase Inhibitor Cocktail 2 (Sigma, P5726), and 1% Phosphatase Inhibitor Cocktail 3 (Sigma, P0044) were added to lyse the cells. Then, the cell lysates were transferred to 1.5 mL microcentrifuge tubes and centrifuged at 12,000 rpm and 4° C. for 30 min. The supernatants were transferred into new tubes, and the protein concentration was determined using the BCA protein quantification method. All samples were diluted to the same concentration using RIPA buffer, loading buffer was added, samples were denatured, and 15 μg of protein per lane was loaded onto a SurePAGE 4-20% Bis-Tris gel. Samples were separated via electrophoresis in MOPS running buffer at 180 V for 100 min. […] Fluorescence was detected using the Odyssey CLx Imaging System, and the data were analyzed with Empiria Studio Software and GraphPad Prism 9. […]

The subject of experiment [1] is BaF3_DTC (EGFR_Exon19del/T790M/C797S). Briefly: EGFR degradation assay (western blot), BaF3_DTC cells. As to conditions: Table 5; BaF3_Del19/T790M/C797S cells, 24 h; read-out: DC50 (nM), 24 h, BaF3_Del19/T790M/C797S. The procedure, abridged: (§2)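 Cells seeded overnight, then exposed to compounds for 24 h; lysates run on western blot, EGFR probed with tubulin loading control and fluorescent secondary detection. DC50 = concentration giving 50% EGFR degradation.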
For orientation: Immunoblotting shows a protein as a band on a membrane.

Another experiment concerns the target T2, A431 (EGFR_WT) (Homo sapiens, UniProt P00533).
T2 construct: endogenous in cells; host or cells: A431, NCI-H2073, NCI-H292
Briefly: EGFR degradation assay (western blot), A431 cells. As to conditions: Table 5, 24 h, read-out: DC50 (nM), 24 h, A431. Here is the method: A431 (EGFR_WT), NCl-H2073 (EGFR_WT), NCl-H292 (EGFR_WT), BaF3_YVAM (Her2_A775insYVAM), BaF3_SVD (EGFR_D770insSVD), BaF3_ASV (EGFR_A776inASV), or BaF3_DTC (EGFR_Exon19del/T790M/C797S) cells were seeded in a 24-well plate at a density of 4×10^5 cells per well for EGFR WT cells and 8× cells per well for EGFR or Her2 mutant cells, and the plates were incubated overnight. The cells were treated with the desired compounds for 24 h. The culture medium was removed, and 100 μL of RIPA buffer (Beyotime, P0013B) containing 1% Protease Inhibitor Cocktail (Bimake, B14001), 1% Phosphatase Inhibitor Cocktail 2 (Sigma, P5726), and 1% Phosphatase Inhibitor Cocktail 3 (Sigma, P0044) were added to lyse the cells. Then, the cell lysates were transferred to 1.5 mL microcentrifuge tubes and centrifuged at 12,000 rpm and 4° C. for 30 min. The supernatants were transferred into new tubes, and the protein concentration was determined using the BCA protein quantification method. All samples were diluted to the same concentration using RIPA buffer, loading buffer was added, samples were denatured, and 15 μg of protein per lane was loaded onto a SurePAGE 4-20% Bis-Tris gel. Samples were separated via electrophoresis in MOPS running buffer at 180 V for 100 min. Then, proteins were transferred onto PVDF membranes using the MiniBlot™ Electrophoretic Transfer Cell Device (Beyotime, E6050). The membrane was blocked using block buffer (LI-COR 927-60001) to prevent non-specific binding. The membrane was incubated with primary antibodies (1:500 dilution, EGFR-CST4405, 1:2000 dilution, Tubulin-ABclonal #AC021) at 4° C. overnight. The membrane was washed three times with 1× TBST buffer for 15 min each. The membrane was incubated with secondary antibodies IRDye 680RD Goat anti-Rabbit IgG Secondary Antibody (1:2000 dilution, LI-COR 926-68071) and IRDye 800CW Goat anti-Mouse IgG Secondary Antibody (1:2000 dilution, LI-COR 926-32210). Finally, the membrane was washed again with 1× TBST buffer 3 times. Fluorescence was detected using the Odyssey CLx Imaging System, and the data were analyzed with Empiria Studio Software and GraphPad Prism 9. Table 4 and Table 5 list the degradation results, where the degradation potency is represented by DC50, the concentration of compounds to cause the degradation of 50% of the corresponding proteins. FIGS. 45-49 show western blots illustrating the EGFR degradative activity of exemplary Compound of the present disclosure and a comparator Compound A in different cell lines 24 h after administration. The Compound referred herein as Compound A is disclosed in WO 2022/171123 A1 (see, compound 133, page 46; published Aug. 18, 2022). WO 2022/171123 A1 discloses phosphine oxide derived molecules with EGFR degradation activity.

Experiment [2] concerns the target T3, BaF3_YVAM (Her2_A775insYVAM) (Homo sapiens, UniProt P04626, INS775YVMA).
T3 construct: expressed in transfected cells; host or cells: Ba/F3 (engineered)
Kind of experiment: EGFR degradation assay (western blot), BaF3_YVAM cells. As to conditions: Table 5; BaF3_YVMA cells (mutant Her2), 24 h. Here is the method:
(§3) A431 (EGFR_WT), NCl-H2073 (EGFR_WT), NCl-H292 (EGFR_WT), BaF3_YVAM (Her2_A775insYVAM), BaF3_SVD (EGFR_D770insSVD), BaF3_ASV (EGFR_A776inASV), or BaF3_DTC (EGFR_Exon19del/T790M/C797S) cells were seeded in a 24-well plate at a density of 4×10^5 cells per well for EGFR WT cells and 8× cells per well for EGFR or Her2 mutant cells, and the plates were incubated overnight. The cells were treated with the desired compounds for 24 h. The culture medium was removed, and 100 μL of RIPA buffer (Beyotime, P0013B) containing 1% Protease Inhibitor Cocktail (Bimake, B14001), 1% Phosphatase Inhibitor Cocktail 2 (Sigma, P5726), and 1% Phosphatase Inhibitor Cocktail 3 (Sigma, P0044) were added to lyse the cells. Then, the cell lysates were transferred to 1.5 mL microcentrifuge tubes and centrifuged at 12,000 rpm and 4° C. for 30 min. The supernatants were transferred into new tubes, and the protein concentration was determined using the BCA protein quantification method. All samples were diluted to the same concentration using RIPA buffer, loading buffer was added, samples were denatured, and 15 μg of protein per lane was loaded onto a SurePAGE 4-20% Bis-Tris gel. Samples were separated via electrophoresis in MOPS running buffer at 180 V for 100 min. Then, proteins were transferred onto PVDF membranes using the MiniBlot™ Electrophoretic Transfer Cell Device (Beyotime, E6050). The membrane was blocked using block buffer (LI-COR 927-60001) to prevent non-specific binding. The membrane was incubated with primary antibodies (1:500 dilution, EGFR-CST4405, 1:2000 dilution, Tubulin-ABclonal #AC021) at 4° C. overnight. The membrane was washed three times with 1× TBST buffer for 15 min each. The membrane was incubated with secondary antibodies IRDye 680RD Goat anti-Rabbit IgG Secondary Antibody (1:2000 dilution, LI-COR 926-68071) and IRDye 800CW Goat anti-Mouse IgG Secondary Antibody (1:2000 dilution, LI-COR 926-32210). […] Fluorescence was detected using the Odyssey CLx Imaging System, and the data were analyzed with Empiria Studio Software and GraphPad Prism 9. […]

For a further experiment, the target named is T4, NCl-H292 (EGFR_WT) (Homo sapiens, UniProt P00533).
T4 construct: endogenous in cells; host or cells: A431, NCI-H2073, NCI-H292
Kind of experiment: EGFR degradation assay (western blot), NCl-H292 cells. As to conditions: Table 5; NCI-H292 cells (EGFR_WT), 24 h. Here is the method:
as §1

Experiment [3] deals with T5, BaF3_ASV (EGFR_A776inASV) (Homo sapiens, UniProt P00533, DUP767-769).
T5 construct: expressed in transfected cells; host or cells: Ba/F3 (engineered)
Kind of experiment: EGFR degradation assay (western blot), BaF3_ASV cells. As to conditions: Table 5; BaF3_ASV cells, 24 h; read-out: DC50 (nM), 24 h, BaF3_ASV. The procedure, abridged:
as §2

For the next experiment, the system named is NCI-H292. Briefly: Cell growth inhibition assay (CellTiter-Glo), NCI-H292. To be noted: Homo sapiens; Table 7; NCI-H292 cells; head prints 24 h. Here is the method: (§4) Cells were seeded in a 96-well plate (Corning 3610) with 90 μL of culture medium per well, and plates were incubated at 37° C. overnight. A 1,000× DMSO stock solution of the desired compound was prepared the following day. A compound dilution plate was prepared by diluting the stock solution 1:100 in the corresponding cell culture medium, 10 μL of the diluted compound solution was added to each 96-well plate well containing the seeded cells. […] The content of the wells was mixed by shaking continuously for 10 min, and luminescence was measured using Envision (PerkinElmer). The data were analyzed with GraphPad Prism 9 (see FIG. 50).
(§5) Table 6, Table 7, and Table 8 list the cell growth inhibition results, where Gls0 represents the compound concentration to cause 50% cell growth inhibition in comparison with DMSO.
Background: In ATP-based viability assays light output follows the ATP content of the culture.

The next experiment concerns BaF3_SVD. Briefly: Cell growth inhibition assay (CellTiter-Glo), BaF3_SVD. As to conditions: Table 7; BaF3_SVD cells. The procedure: Cells were seeded in a 96-well plate (Corning 3610) with 90 μL of culture medium per well, and plates were incubated at 37° C. overnight. A 1,000× DMSO stock solution of the desired compound was prepared the following day. A compound dilution plate was prepared by diluting the stock solution 1:100 in the corresponding cell culture medium, 10 μL of the diluted compound solution was added to each 96-well plate well containing the seeded cells. Then, the cells were cultured at 37° C. for three days following compound treatment, 100 μL of CellTiter-Glo reagents (Promega G7573) was added to each well of the 96-well plate. The content of the wells was mixed by shaking continuously for 10 min, and luminescence was measured using Envision (PerkinElmer). The data were analyzed with GraphPad Prism 9 (see FIG. 50).
as §5

A further experiment has as its system A431. Kind of experiment: Cell growth inhibition assay (CellTiter-Glo), A431. To be noted: Homo sapiens, A-431, 24 h, Table 7; A431 cells; head prints 24 h; read-out: GI50 (nM), 24 h, A431. The procedure, abridged:
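Cells were plated in 96-well plates (Corning 3610) at 90 μL of culture medium per well and incubated overnight at 37° C. The next day, a 1,000× DMSO compound stock was diluted 1:100 in cell culture medium, and 10 μL was added per well. After shaking for 10 min, luminescence was read on an Envision (PerkinElmer) reader.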

Experiment [4] deals with T6, BaF3_SVD (EGFR_D770insSVD) (Homo sapiens, UniProt P00533, INS770SVD).
T6 construct: expressed in transfected cells; host or cells: Ba/F3 (engineered)
Briefly: EGFR degradation assay (western blot), BaF3_SVD cells. As to conditions: Table 5; BaF3_SVD cells, 24 h. Here is the method: as §3

Another experiment concerns BaF3_YVMA. Briefly: Cell growth inhibition assay (CellTiter-Glo), BaF3_YVMA. To be noted: Table 7; BaF3_YVMA cells; head prints 24 h. Here is the method:
as §4, §5

The test system of another experiment is BaF3_DTC. Kind of experiment: Cell growth inhibition assay (CellTiter-Glo), BaF3_DTC. To be noted: Table 7; BaF3_Del19/T790M/C797S cells; head prints 24 h; read-out: GI50 (nM), 24 h, BaF3_Del19/T790M/C797S.
For the next experiment, the system named is BaF3_ASV. Kind of experiment: Cell growth inhibition assay (CellTiter-Glo), BaF3_ASV. To be noted: Table 7; BaF3_ASV cells; head prints 24 h; read-out: GI50 (nM), 24 h, BaF3_ASV.

T3 sequence (P04626 with tags, fused parts or gaps INS775YVMA): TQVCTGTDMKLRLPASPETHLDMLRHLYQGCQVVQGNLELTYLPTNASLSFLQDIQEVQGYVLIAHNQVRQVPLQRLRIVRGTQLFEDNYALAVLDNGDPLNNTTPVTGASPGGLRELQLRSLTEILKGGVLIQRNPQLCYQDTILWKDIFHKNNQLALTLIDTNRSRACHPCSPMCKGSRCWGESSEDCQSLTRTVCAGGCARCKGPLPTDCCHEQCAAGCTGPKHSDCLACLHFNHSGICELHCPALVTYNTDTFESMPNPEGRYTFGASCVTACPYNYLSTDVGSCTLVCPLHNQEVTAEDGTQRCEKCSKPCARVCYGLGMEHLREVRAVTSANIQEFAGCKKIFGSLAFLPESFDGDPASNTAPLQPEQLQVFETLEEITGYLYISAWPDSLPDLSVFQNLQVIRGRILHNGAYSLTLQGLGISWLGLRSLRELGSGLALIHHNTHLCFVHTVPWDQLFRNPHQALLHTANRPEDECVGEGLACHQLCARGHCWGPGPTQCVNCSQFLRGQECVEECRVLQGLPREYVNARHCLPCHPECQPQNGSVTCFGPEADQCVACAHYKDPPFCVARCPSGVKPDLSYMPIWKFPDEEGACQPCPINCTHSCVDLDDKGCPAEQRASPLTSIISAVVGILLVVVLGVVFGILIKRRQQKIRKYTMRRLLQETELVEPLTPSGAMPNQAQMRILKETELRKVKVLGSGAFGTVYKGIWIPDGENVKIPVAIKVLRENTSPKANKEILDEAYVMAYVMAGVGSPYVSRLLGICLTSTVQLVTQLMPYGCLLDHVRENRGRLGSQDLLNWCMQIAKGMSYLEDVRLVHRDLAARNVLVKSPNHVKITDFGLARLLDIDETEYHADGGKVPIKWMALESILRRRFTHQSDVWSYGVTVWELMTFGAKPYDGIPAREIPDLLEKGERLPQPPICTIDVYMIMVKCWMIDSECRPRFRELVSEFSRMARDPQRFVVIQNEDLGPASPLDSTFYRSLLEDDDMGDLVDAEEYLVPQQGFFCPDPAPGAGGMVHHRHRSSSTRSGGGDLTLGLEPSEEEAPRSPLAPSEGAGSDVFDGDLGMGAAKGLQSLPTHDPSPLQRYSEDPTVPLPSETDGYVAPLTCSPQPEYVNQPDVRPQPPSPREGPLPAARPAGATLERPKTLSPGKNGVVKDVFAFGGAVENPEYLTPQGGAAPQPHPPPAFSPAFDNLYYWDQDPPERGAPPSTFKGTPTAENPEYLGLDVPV
T6 sequence (P00533 with tags, fused parts or gaps INS770SVD): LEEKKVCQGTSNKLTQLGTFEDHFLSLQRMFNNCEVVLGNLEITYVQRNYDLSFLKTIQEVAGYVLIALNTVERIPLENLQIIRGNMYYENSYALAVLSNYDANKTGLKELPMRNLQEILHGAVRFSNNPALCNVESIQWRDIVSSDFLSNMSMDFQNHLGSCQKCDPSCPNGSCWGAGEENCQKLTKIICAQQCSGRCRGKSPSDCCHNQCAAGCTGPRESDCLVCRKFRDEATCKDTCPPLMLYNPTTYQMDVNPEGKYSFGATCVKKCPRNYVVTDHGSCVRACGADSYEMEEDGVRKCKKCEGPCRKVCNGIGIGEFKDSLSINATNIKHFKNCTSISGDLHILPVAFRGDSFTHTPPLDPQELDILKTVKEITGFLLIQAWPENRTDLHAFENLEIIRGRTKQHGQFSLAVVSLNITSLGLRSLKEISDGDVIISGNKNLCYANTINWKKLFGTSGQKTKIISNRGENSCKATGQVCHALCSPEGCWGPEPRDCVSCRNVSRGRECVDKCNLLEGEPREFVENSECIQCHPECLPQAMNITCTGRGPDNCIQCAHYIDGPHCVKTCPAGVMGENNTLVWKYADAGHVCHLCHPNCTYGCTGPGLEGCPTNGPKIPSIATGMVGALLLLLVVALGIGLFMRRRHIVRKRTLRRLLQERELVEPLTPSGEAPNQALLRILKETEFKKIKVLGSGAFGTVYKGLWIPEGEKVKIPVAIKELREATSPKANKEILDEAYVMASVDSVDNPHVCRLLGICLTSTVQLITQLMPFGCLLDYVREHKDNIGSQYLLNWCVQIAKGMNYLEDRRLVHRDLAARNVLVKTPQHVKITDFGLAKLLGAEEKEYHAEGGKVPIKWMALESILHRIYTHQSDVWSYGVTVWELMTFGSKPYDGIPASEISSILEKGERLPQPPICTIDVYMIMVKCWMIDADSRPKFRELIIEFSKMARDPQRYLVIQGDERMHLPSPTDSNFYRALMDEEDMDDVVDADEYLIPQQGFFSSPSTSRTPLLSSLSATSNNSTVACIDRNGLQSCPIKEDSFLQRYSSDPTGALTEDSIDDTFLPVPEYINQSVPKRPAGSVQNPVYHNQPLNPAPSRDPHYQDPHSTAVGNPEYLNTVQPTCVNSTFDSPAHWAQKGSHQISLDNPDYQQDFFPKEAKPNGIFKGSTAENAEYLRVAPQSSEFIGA
T5 sequence (P00533 with tags, fused parts or gaps DUP767-769): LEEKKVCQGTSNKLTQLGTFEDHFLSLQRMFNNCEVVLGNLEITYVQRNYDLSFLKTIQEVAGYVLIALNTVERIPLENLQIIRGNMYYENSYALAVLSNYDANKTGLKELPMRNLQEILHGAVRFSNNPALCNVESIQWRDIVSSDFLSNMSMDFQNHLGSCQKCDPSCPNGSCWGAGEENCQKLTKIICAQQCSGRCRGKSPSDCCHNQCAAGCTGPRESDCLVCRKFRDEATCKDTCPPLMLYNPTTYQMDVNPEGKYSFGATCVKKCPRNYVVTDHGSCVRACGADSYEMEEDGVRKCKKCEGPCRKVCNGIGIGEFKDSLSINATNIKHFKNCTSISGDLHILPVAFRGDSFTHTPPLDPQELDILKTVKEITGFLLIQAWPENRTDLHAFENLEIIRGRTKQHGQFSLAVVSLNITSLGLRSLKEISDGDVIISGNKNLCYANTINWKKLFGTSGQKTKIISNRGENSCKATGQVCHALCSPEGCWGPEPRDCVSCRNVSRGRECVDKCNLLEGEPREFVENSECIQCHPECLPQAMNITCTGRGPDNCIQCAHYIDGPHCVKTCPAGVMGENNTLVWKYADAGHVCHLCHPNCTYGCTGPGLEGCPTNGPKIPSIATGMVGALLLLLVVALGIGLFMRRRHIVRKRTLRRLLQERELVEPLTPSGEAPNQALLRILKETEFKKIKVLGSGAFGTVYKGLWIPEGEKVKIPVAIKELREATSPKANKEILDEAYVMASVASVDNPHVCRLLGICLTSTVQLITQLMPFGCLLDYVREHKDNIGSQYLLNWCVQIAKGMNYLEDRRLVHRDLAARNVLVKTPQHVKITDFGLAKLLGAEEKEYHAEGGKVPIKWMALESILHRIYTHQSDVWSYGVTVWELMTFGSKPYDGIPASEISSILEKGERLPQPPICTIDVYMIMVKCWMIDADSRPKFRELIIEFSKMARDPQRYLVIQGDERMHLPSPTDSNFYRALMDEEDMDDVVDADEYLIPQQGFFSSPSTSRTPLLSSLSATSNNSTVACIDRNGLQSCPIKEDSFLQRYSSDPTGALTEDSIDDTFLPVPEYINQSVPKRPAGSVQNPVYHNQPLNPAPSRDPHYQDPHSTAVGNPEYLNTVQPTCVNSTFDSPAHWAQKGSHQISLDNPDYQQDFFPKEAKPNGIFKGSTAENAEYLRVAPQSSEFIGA
T4 sequence (P00533 25-1210): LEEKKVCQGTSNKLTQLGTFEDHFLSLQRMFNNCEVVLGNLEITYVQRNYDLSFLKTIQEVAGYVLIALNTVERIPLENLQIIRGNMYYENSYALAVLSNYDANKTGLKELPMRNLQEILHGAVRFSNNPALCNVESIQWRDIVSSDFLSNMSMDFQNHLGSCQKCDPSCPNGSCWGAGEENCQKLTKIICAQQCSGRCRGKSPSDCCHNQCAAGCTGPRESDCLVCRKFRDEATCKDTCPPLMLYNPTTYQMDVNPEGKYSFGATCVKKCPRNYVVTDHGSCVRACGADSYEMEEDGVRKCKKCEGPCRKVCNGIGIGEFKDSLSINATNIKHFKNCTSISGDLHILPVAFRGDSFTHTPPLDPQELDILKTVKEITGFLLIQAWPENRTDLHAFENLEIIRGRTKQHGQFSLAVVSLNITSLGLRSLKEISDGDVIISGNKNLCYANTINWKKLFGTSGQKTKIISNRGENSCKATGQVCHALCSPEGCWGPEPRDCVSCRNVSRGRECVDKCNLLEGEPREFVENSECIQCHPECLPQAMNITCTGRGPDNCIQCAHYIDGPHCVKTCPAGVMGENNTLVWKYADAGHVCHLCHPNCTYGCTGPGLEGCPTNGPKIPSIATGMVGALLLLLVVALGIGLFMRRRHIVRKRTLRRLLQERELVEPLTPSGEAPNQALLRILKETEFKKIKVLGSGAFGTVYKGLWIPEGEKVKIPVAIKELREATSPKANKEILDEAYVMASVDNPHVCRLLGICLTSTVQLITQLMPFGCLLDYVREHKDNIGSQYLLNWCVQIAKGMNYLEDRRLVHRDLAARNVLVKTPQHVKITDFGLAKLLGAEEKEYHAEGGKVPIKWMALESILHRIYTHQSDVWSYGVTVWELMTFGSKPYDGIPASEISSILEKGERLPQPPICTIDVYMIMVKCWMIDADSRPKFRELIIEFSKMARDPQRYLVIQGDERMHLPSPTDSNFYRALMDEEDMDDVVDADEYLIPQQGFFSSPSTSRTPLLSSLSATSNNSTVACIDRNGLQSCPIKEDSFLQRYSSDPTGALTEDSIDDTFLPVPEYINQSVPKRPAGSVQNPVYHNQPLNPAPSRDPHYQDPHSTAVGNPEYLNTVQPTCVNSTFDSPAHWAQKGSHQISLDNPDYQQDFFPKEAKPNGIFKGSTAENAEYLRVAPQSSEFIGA

Regarding `CCc1cc(Nc2ncc(Br)c(Nc3cnc4ccccc4c3P(C)(C)=O)n2)c(OC)cc1N1CCC(N2CCN(CCc3cccc4c3n(CC)c(=O)n4C3CCC(=O)NC3=O)CC2)CC1` (stereo not shown) [Compound A, reference compound], the DC50 on NCl-H2073 (EGFR_WT) is more than 1000 nM; in experiment [1], 0.622 nM; on A431 (EGFR_WT), more than 1000 nM; in experiment [2], more than 1000 nM; at NCl-H292 (EGFR_WT), more than 1000 nM; in experiment [3] it was 109 nM. In experiment [4], this molecule gave a DC50 of 280 nM. Further, the GI50 in the experiment with NCI-H292 was more than 3000 nM; in the experiment on BaF3_SVD, 2340 nM; with A431, more than 3000 nM; in the experiment on BaF3_YVMA it was 2630 nM; in the experiment with BaF3_DTC it was 8.57 nM; in the experiment on BaF3_ASV it was 824 nM.

For the origin of these results see patent US20250002473A1, “QUINOXALINE DERIVED SULFONAMIDES WITH EGFR DEGRADATION ACTIVITIES AND THEIR USES THEREOF” (Accutar Biotechnology Inc., priority 2023, published 2025).
